Laboratory results reported in US11026963B2, “Senolytic compositions and uses thereof” (Rubedo Life Sciences, Inc., priority 2018, dated 2021).

Legend:
[1] = system: Mouse embryonic fibroblast cells (MEFs); assay: Viability of proliferating or senescent mouse embryonic fibroblasts (DAPI/PI staining); type: cell-based; settings: 4 days
Description: Mouse embryonic fibroblast cells were incubated with 300 nM doxorubicin for 24 hrs to induce senescence. Cells were washed and after incubation in media for 7 days, senescence was confirmed by staining for SA-β-Gal (Itahana et al., Methods Mol. Biol. 371 (2007) 21-31) and lack of incorporation of 5-ethynyl-2′-deoxyuridine (EdU) (see Yu et al., J. Immunol. Methods 350 (2009) 29-35).
Proliferating or senescent MEFs were treated with increasing concentrations of either FURGal (101) or 5-fluorouridine (FUR) (102) for 4 days. Cells were washed and stained with 4′,6-diamidino-2-phenylindole (DAPI) and propidium iodide (PI) and the fraction of viable cells was assessed from the ratio of PI-positive nuclei over PI-negative nuclei.

[2] = system: senescent C57BL/6 mouse hepatocytes; assay: Effect of FURGal on doxorubicin-induced senescent hepatocytes after in vivo administration; settings: doxorubicin 25 mg/kg i.p.; FURGal 140 mg/kg 4 and 6 days later; livers after additional 4 days; FIG. 3C
Description: Two groups of C57BL/6 mice (N=5/group) were injected intraperitoneally with doxorubicin (25 mg/kg) to induce hepatocellular senescence. 4 and 6 days later groups were injected with PBS or FURGal (140 mg/kg) (101). A third group of 5 animals served as controls. After an additional 4 days livers were removed and sectioned (30 μm) before staining for SA-β-Gal (6 fields/animal were assessed) (FIGS. 3A and 3B).

C57BL/6 mice = assay: Comparative toxicity of FURGal and FUR to C57BL/6 mice; type: in vivo; settings: six days after treatment
Description: Equimolar doses of (101)(160 mg/kg) and (102) (100 mg/kg) were administered by single dose intraperitoneal injection to 2 groups of mice (N=3 each). Six days after treatment blood cell counts were determined by standard methods (FIG. 2A), bone marrow cells from femur were counted (FIG. 2B) and spleen weights (FIG. 2C) determined to compare the toxicity of the two drugs.

[3] = system: Normal human fibroblasts (IMR90); assay: Compound toxicity towards normal proliferative, senescent or quiescent fibroblasts (XTT cell viability assay); type: cell-based; settings: IC50 against normal, proliferating cells divided by IC50 versus senescent (doxorubicin-induced) cells, three days treatment
Description: Normal human fibroblasts (IMR90) and patient-derived β-galactosidase (GLB1) or α-fucosidase (FUCA1) deficient cells were used to determine change in cell viability after exposure to compound. Cells were cultured with DMEM and 10% heat inactivated FBS under a controlled atmosphere of 5% carbon dioxide and 5% oxygen, […] and confirmed by the absence of senescence associated β-galactosidase (SA-β-Gal) staining and the capacity to re-enter the cell cycle. Senescence was induced by treatment with doxorubicin and confirmed by SA-β-Gal positive staining and the lack of DNA replication. Cells were treated with compound for three days. Cell viability was determined by mitochondrial dehydrogenase activity (XTT assay. Cayman Chemical) at ten concentrations of the tested compound. To generate dose-response curves, data was fitted to a four-parameter Hill function and the IC50 was determined at Y=0.5 viability. The senolytic index (S.I.) for each compound was determined by dividing the IC50 against normal, proliferating cells by the IC50 versus senescent cells. Senolytic index data is shown in Table 1 with compounds having S.I.<1 (−), S.I>1 (+), S.I.>5 (++) and S.I>10 (+++).

[4] = system: senescent lung cells in C57BL/6 mice; assay: Senolytic effect of compound (119) on doxorubicin-induced senescent lung cells after in vivo administration; design: species or system mouse
Description: Four groups of C57BL/6 mice (N=9/group) were injected intravenously with doxorubicin (15 mg/kg) to induce senescence in lung tissue. Five days later groups were injected with vehicle or compound (119) (aka RBO-019) (10, 20 or 40 mg/kg i.v.). After an additional 3 days lungs were removed and the left lobes sectioned before staining for SA-β-Gal as previously described (FIGS. 5A and 5B). […] This senolytic effect was also corroborated by using quantitative PCR to detect mRNA levels of Cdkn2a (p16^INK4a). Expression levels were reported relative to Actb as the reference gene.

[5] = compared with seco product (78); Tietze et al.; cited from earlier work

SMILES	toxicity towards senescent MEFs ([1]; doxorubicin-induced senescent MEFs, FIG. 1B)	cell viability / toxicity towards proliferating cells ([1]; proliferating MEFs, increasing concentrations (as high as 4 mM), FIG. 1A)	senescent hepatocytes (SA-β-Gal staining of liver sections) [2]	toxicity towards platelets, neutrophils, lymphocytes and bone marrow cells (C57BL/6 mice; equimolar single i.p. dose: (101) 160 mg/kg, (102) 100 mg/kg, FIG. 2A, 2B)	effects on spleen weight (C57BL/6 mice; single i.p. dose 160 mg/kg, in comparison to FUR (102) 100 mg/kg, FIG. 2C)	Senolytic Index (S.I.) [3]	SA-β-Gal staining in lung sections ([4]; doxorubicin 15 mg/kg i.v., 10, 20 or 40 mg/kg i.v. five days later, lungs after additional 3 days, FIG. 5C)	Cdkn2a gene expression in lung ([4]; quantitative PCR, relative to Actb, 10, 20 or 40 mg/kg i.v., FIG. 5D)	fold less cytotoxic than hydrolyzed seco product (78) [5]
O=c1[nH]c(=O)n([C@@H]2O[C@H](CO[C@@H]3O[C@H](CO)[C@H](O)[C@H](O)[C@H]3O)[C@@H](O)[C@H]2O)cc1F [(101), 5-fluorouridine-5′-O-β-D-galactopyranoside]	equitoxic	completely non-toxic	numerical trend for a reduction	negligible toxicity	minimal effects	+++ (S.I>10 (+++))	–	–	–
CC(=O)O[C@H]1[C@H](OC(C)=O)[C@H](ONC(=O)/C=C/c2ccc(CNCCc3c(C)[nH]c4ccccc34)cc2)O[C@@H](C)[C@H]1OC(C)=O [(119), (2S,3R,4R,5S,6S)-2-Methyl-6-(((E)-3-(4-(((2-(2-methyl-1H-indol-3-yl)ethyl)amino)methyl)phenyl)acrylamido)oxy)tetrahydro-2H-pyran-3,4,5-triyl triacetate]	–	–	–	–	–	+++ (S.I>10 (+++))	dose-dependent reduction	dose-dependent reduction	–
C[C@@H](Cl)[C@@H]1CN(C(=O)c2cc3cc(OCCN(C)C)ccc3[nH]2)c2cc(O[C@@H]3O[C@H](CO)[C@H](O)[C@H](O)[C@H]3O)c3ccccc3c21 [Compound (77)]	–	–	–	–	–	–	–	–	greater than 4000 fold
